Measurements from US6800630B2, “Pyrimidine derivatives having antitumor effect” (Shionogi & Co., Ltd., priority 2000, dated 2004).
≈ marks a conversion by molar mass, not a printed value.

Experiments:
Type in all cases: cell-based
[1] = system: signal derived from Ras oncogene products (DT-R cells, pRRE3-luc transfected v-ki-ras-transformed NIH373 cells); experiment: Inhibitory effect against cellular signaling derived from Ras oncogene products: RRE-luciferase reporter, Minimal Active Concentration (MAC) at which DT-C and DT-R activities dissociate; conditions: minimal concentration at which luciferase activities of DT-C and DT-R cells dissociated
Source text: (§1) Test Example 1 Inhibitory effect against cellular signaling derived from Ras oncogene products
(§2) Based on the reporter plasmid (pGV-P (Toyo Ink, Japan)), in which luciferase gene was ligated to SV40-derived minimal promoter, we constructed a plasmid designated pRRE3-luc by inserting 3 copies of chemically synthesized oligonucleotides (Sequence: CAGGATATGACTCT, derived from mouse NVL-3 (M. A. Reddy et al.(1992)Mol. Endocrinol., 6, 1051)) into upstream of the promoter. v-ki-ras-transformed NIH373 cells (DT cells, provided by Dr. Makoto Noda (Kyoto Univ., School of medicine)) were transfected with this plasmid by liposome-mediated transfection and transfected cell lines stably incorporated and maintained each plasmid were obtained. We named pGV-P and pRRE3-transfected cell line as DT-C and DT-R, respectively and used in the assay described below.
(§3) i) All the cell lines were cultured in Dulbecco's Modified Essential Medium (DMEM: 10% Fetal Calf Serum(FCS: Hyclone, USA)) including […] kanamycin (Meiji Seika, Japan) in humidified incubator under condition of 5% CO2 at 37° C.
(§4) ii) DT-C and DT-R cells were seeded at 2500 cells/well into flat-bottom 96 well multiplate (Sumitomo bakelite) and incubated for 24 hours.
(§5) iii) Test compounds were prepared as 1 mg/ml DMSO solution.
(§6) iv) The solution of test compounds were added to the culture. Tested compounds are used at the concentration from […] to 0.51 ng/ml with 3-fold dilution.
(§7) v) After 24 hours, the culture supernatant was completely aspirated and 20 μl of cell-lysing solution (PGC-50 (Toyo Ink, Japan)) was added before cells were dried up. In order to lyse the cells completely, multiwell plates were left at room temperature for 10 to 30 min. The plates were wrapped up and stored at −20° C. till the day of measurement.
(§8) i) Melt the samples by putting 96 well multiplate at 37° C. and add 90 μl/well 25 mM Tris (pH 7.5).
(§9) ii) Transfer 50 μl of the sample (110 μl) to the 96 well microplate (Microlite 1 (Dynatech)) for measurement.
(§10) iii) Measure the samples by the luminometer, LUMINOUS CT9000D (Dia-Yatron, Japan). We used Pickagene luminescence kit PGL2000 or LT2.0 (Toyo Ink, Japan) as enzyme substrates for luminescence measurement (50 μl/well).
(§11) i) The luciferase activity of DT-C cells and DT-R cells were plotted in the graph where the relative activity and the compound concentration were expressed as Y-axis and X-axis, respectively. We judged by the degree of dissociation between the activities of DT-C cells and DT-R cells as an index.
ii) Concretely, efficacy of the compound was expressed by two values described below.
a) Among the points of concentration tested, the minimal concentration (Minimal Active Concentration: MAC), at which the activities of DT-C cells and DT-R cells dissociated, was shown as an index of efficacy of the compound.

[2] = system: human squamous lung cancer Ma44; experiment: In vitro cell growth inhibition test, MTT assay; conditions: MTT assay 4 days after compound addition
Source text: (§12) Test Example 2 In vitro cell growth inhibition test Cells and MTT assay
(§13) Human squamous lung cancer […], human squamous lung cancer Ma44, human lung adenocarcinoma A549, human colon cancer HT29 and human pancreas cancer PANC-1 were used.

[3] = system: human lung adenocarcinoma A549; experiment: In vitro cell growth inhibition test, MTT assay; conditions: MTT assay 4 days after compound addition
Source text: as §12, §13

[4] = system: human pancreas cancer PANC-1; experiment: In vitro cell growth inhibition test, MTT assay; conditions: MTT assay 4 days after compound addition
Source text: as §12, §13

human colon cancer HT29 = experiment: In vitro cell growth inhibition test, MTT assay; conditions: MTT assay 4 days after compound addition
Source text: as §12, §13

[5] = system: DT-C cells (pGV-P transfected v-ki-ras-transformed NIH373 cells); experiment: Luciferase activity of DT-C control cells (IC50-C), index of non-specific transcription-inhibitory effect or cytotoxicity; conditions: tested concentration nearest to 50% inhibition in DT-C cells
Source text: as §1, §2, §3, §4, §5, §6, §7, §8, §9, §10, §11
b) Among the points of concentration tested, the concentration which is the nearest to 50% inhibition concentration at DT-C cells (IC50-C), was shown as an index of non-specific transcription-inhibitory effect or of cytotoxicity. In case of positive compounds, 50% inhibition concentration in DT-C cells which was higher than the active concentration was expressed as IC50-C.

[6] = system: human squamous lung cancer RERF-RC-AI; experiment: In vitro cell growth inhibition test, MTT assay; conditions: MTT assay 4 days after compound addition
Source text: as §12, §13

H460 = experiment: In vitro cell growth inhibition test, MTT assay; conditions: MTT assay 4 days after compound addition
Source text: [The source words this procedure for another cell line and reports this cell line under the same test.] as §12, §13

For `CNC(=Nc1nc(C)ncc1CSc1nnc(-c2ccc([N+](=O)[O-])cc2)o1)NCC(F)(F)F` [Compound C-1, reference compound], the “MAC (Minimal Active Concentration)” value [1] was 0.0412 µg/mL, the “IC50 Ma44” value [2] was 0.011 µg/mL (≈ 0.0228 µM) and the “IC50 A549” value [3] was 0.016 µg/mL (≈ 0.0332 µM). For the same molecule, the “IC50 PANC-1” value [4] was 0.0064 µg/mL (≈ 0.0133 µM) and the “IC50 HT-29” value (human colon cancer HT29) was 0.0066 µg/mL (≈ 0.0137 µM).
With `C#CCNC(=Nc1nc(C)ncc1CSc1nnc(-c2ccc([N+](=O)[O-])cc2)o1)NC` [Compound C-2, reference compound] the “IC50 (IC50-C)” value [5] was greater than 10 µg/mL, the “MAC (Minimal Active Concentration)” value [1] was 0.0137 µg/mL and the “IC50 Ma44” value [2] was 0.0034 µg/mL (≈ 0.00775 µM). The “IC50 A549” value [3] was 0.0044 µg/mL (≈ 0.01 µM), the “IC50 PANC-1” value [4] was 0.002 µg/mL (≈ 0.00456 µM) and the “IC50 HT-29” value (human colon cancer HT29) was 0.002 µg/mL (≈ 0.00456 µM).
With `CCNC(=Nc1nc(C)ncc1CSc1nnc(-c2ccc(N)cc2)o1)SCC` [Compound A-14] the “IC50 (IC50-C)” value [5] was greater than 10 µg/mL, the “MAC (Minimal Active Concentration)” value [1] was 0.0412 µg/mL and the “IC50 Ma44” value [2] was 0.032 µg/mL (≈ 0.0745 µM). The “IC50 A549” value [3] was 0.012 µg/mL (≈ 0.0279 µM), the “IC50 PANC-1” value [4] was 0.0098 µg/mL (≈ 0.0228 µM) and the “IC50 HT-29” value (human colon cancer HT29) was 0.011 µg/mL (≈ 0.0256 µM). For the same molecule, the “IC50 RERF-LC-AI” value [6] was 0.012 µg/mL (≈ 0.0279 µM).
With `CCNC(=Nc1nc(C)ncc1CSc1nnc(-c2ccc([N+](=O)[O-])cc2)o1)SCC` [Compound A-6] the “MAC (Minimal Active Concentration)” value [1] was 0.0412 µg/mL, the “IC50 Ma44” value [2] was 0.0182 µg/mL (≈ 0.0396 µM) and the “IC50 A549” value [3] was 0.0256 µg/mL (≈ 0.0557 µM). For the same molecule, the “IC50 PANC-1” value [4] was 0.0148 µg/mL (≈ 0.0322 µM), the “IC50 HT-29” value (human colon cancer HT29) was 0.0244 µg/mL (≈ 0.0531 µM) and the “IC50 H460” value (H460) was 0.0256 µg/mL (≈ 0.0557 µM). For the same molecule, the “IC50 RERF-LC-AI” value [6] was 0.015 µg/mL (≈ 0.0326 µM).
For `CCSC(=Nc1nc(C)ncc1CSc1nnc(-c2ccc([N+](=O)[O-])cc2)o1)NC` [Compound A-5], the “MAC (Minimal Active Concentration)” value [1] was 0.123 µg/mL, the “IC50 Ma44” value [2] was 0.0446 µg/mL (≈ 0.1 µM) and the “IC50 A549” value [3] was 0.07 µg/mL (≈ 0.157 µM). The “IC50 PANC-1” value [4] was 0.0665 µg/mL (≈ 0.149 µM), the “IC50 HT-29” value (human colon cancer HT29) was 0.0484 µg/mL (≈ 0.109 µM) and the “IC50 H460” value (H460) was 0.089 µg/mL (≈ 0.2 µM). The “IC50 RERF-LC-AI” value [6] was 0.033 µg/mL (≈ 0.0741 µM).
For `CCCNC(=Nc1nc(C)ncc1CSc1nnc(-c2ccc([N+](=O)[O-])cc2)o1)SC` [Compound A-4], the “IC50 (IC50-C)” value [5] was greater than 10 µg/mL, the “MAC (Minimal Active Concentration)” value [1] was 0.37 µg/mL and the “IC50 Ma44” value [2] was 0.051 µg/mL (≈ 0.111 µM). For the same molecule, the “IC50 A549” value [3] was 0.038 µg/mL (≈ 0.0827 µM), the “IC50 PANC-1” value [4] was 0.026 µg/mL (≈ 0.0566 µM) and the “IC50 HT-29” value (human colon cancer HT29) was 0.023 µg/mL (≈ 0.05 µM). For the same molecule, the “IC50 RERF-LC-AI” value [6] was 0.03 µg/mL (≈ 0.0653 µM).
In the case of `CNC(=Nc1nc(C)ncc1CSc1nnc(-c2ccc([N+](=O)[O-])cc2)o1)SC` [Compound A-1], the “IC50 (IC50-C)” value [5] is reported as greater than 10 µg/mL, the “MAC (Minimal Active Concentration)” value [1] is reported as 1.11 µg/mL and the “IC50 Ma44” value [2] is reported as 0.12 µg/mL (≈ 0.278 µM). For the same molecule, the “IC50 A549” value [3] was 0.0009 µg/mL (≈ 0.00209 µM), the “IC50 PANC-1” value [4] was 0.046 µg/mL (≈ 0.107 µM) and the “IC50 HT-29” value (human colon cancer HT29) was 0.045 µg/mL (≈ 0.104 µM).
In the case of `CCNC(=Nc1nc(C)ncc1CSc1nnc(-c2ccc([N+](=O)[O-])cc2)o1)OCC` [Compound A-33], the “IC50 (IC50-C)” value [5] is reported as greater than 10 µg/mL, the “MAC (Minimal Active Concentration)” value [1] is reported as 0.0412 µg/mL and the “IC50 Ma44” value [2] is reported as 0.0091 µg/mL (≈ 0.0205 µM). The “IC50 A549” value [3] was 0.023 µg/mL (≈ 0.0519 µM), the “IC50 PANC-1” value [4] was 0.0086 µg/mL (≈ 0.0194 µM) and the “IC50 HT-29” value (human colon cancer HT29) was 0.0066 µg/mL (≈ 0.0149 µM). The “IC50 RERF-LC-AI” value [6] was 0.0093 µg/mL (≈ 0.021 µM).
For `CCNC(=Nc1nc(C)ncc1CSc1nnc(-c2ccc([N+](=O)[O-])cc2)o1)OC(C)C` [Compound A-35], the “IC50 (IC50-C)” value [5] was greater than 10 µg/mL, the “MAC (Minimal Active Concentration)” value [1] was 0.0412 µg/mL and the “IC50 Ma44” value [2] was 0.0069 µg/mL (≈ 0.0151 µM). The “IC50 A549” value [3] was 0.011 µg/mL (≈ 0.024 µM), the “IC50 PANC-1” value [4] was 0.0054 µg/mL (≈ 0.0118 µM) and the “IC50 HT-29” value (human colon cancer HT29) was 0.0033 µg/mL (≈ 0.00721 µM). The “IC50 RERF-LC-AI” value [6] was 0.0067 µg/mL (≈ 0.0146 µM).
